From EP0312245A2, “Polycyclic compounds and pharmaceutical compositions thereof” (NORISTAN HOLDINGS LIMITED, priority 1987, dated 1989)
Like-named read-outs stand apart in the source and are kept apart here.

Experiments:
[1] = test system: spontaneously hypertensive rats (SHR ); experiment: Antihypertensive test: mean arterial pressure in spontaneously hypertensive rats; assay type: in vivo, rat; details: statement in words
Method: The effect of Compound 3 on the mean arterial pressure was determined on spontaneously hypertensive rats (SHR ) by means of direct pressure transducing. Groups of 6 male rats of mass 210-300g were used. The average of ten pressure determinations was used. Normotensive (BD-9) rats were used as animal controls, while normal saline solution (containing some traces of polyethylene glycol and ethanol to aid in the solution of the test compounds) was used as solvent and as solvent control.
After verifying the mass of the animal, it was placed under general anaesthesia by administering 60mgikg pentobarbitone (Sagatal@) intraperitonially. The tracheal tube and carotid artery were both exposed by dissection. An intranule was introduced into the trachea as aid ventilation. The carolid artery was canalated and coupled to a pressure sensor. The sysolic, diastolic and mean arterial pressure were monitored via a Spacelab 514 patient monitor and registered on a Vitatek 551 plotter. During the experiment the exposed tissue of the rat was covered with guaze and kept damp with normal saline.
The drugs and solvent controls were administered intravenously into the dorsal penile vein after stabilization of the blood pressure (BP) had occurred. After drug administration, the BP was recorded every 5 minutes for a period of 30 min.

[2] = test system: isolated rabbit ear preparation; experiment: Rabbit ear perfusion test (adrenaline-induced tone, perfusion pressure)
Method: Female New Zealand White rabbits (approximately 4kg) were anaesthetised with Sagatal ® (0.5ml/kg).
The central ear artery was cannulated using a 20 G catheter and the ear cut off at its base. Heparinised (5ml, 200 IU;ml) Krebs bicarbonate solution was perfused through the ear to expel the blood. The ear was placed in a warming jacket at 37°C and attached via the arterial catheter to the perfusion pump. Perfusion of the ear with aerated (95% 025% C02)Krebs bicarbonate solution at 37° C was commenced at a rate of 6.5ml/min using a Watson Marlow peristaltic pump. The perfusion pressure was monitored continuously using a pressure transducer (Type 4-327-1221, Consoliated Electrodynamics) coupled to a Devices Recorder.
Following an equilibration period of 15 minutes, increased tone was induced in the preparation by addition of adrenaline (1µg/ml) to the perfusion fluid.
After a stable tone was observed, various concentrations of test compounds were injected into the perfusion fluid and examined for their effect on the perfusion pressure. The effect of vehicle (0.2ml, 50% Krebs 50% ethanol) was also tested on the ear preparation.

cardiac myocytes = experiment: Calcium current blockade in cardiac myocytes (voltage clamp); assay type: cell-based, guinea-pig; details: voltage clamp experiments of cardiac myocytes
Method: Ventricular myocytes were isolated from guinea-pig hearts by enzymatic dispersion of the cells using a method related to that employed by Mitra and Morad. After 5 minutes of perfusion at 37 °C on a Langendorff apparatus, the Tyrode solution was changed for a Ca-free solution for 5 minutes, after which the heart was perfused with a 40ml Ca-free solution containing 12mg collagenase (Type II, Sigma) and 10mg protease (Type XIV; Sigma). Perfusion with the soluticn containing enzymes was usually stopped within 5 minutes or as soon as dark areas appeared on the ventricles. The heart was then perfused with a Tyrode solution containing 0.8mM Ca for a few minutes, after which the ventricles were cut in small pieces and the isolated cells were shaken free in a 50ml beaker containing Tyrode solution.
Tyrode solution containing 5.4 mM KCI; 1.8 mM CaC12; 0.5 mM MgClz; 137.6 mM NaCI; 5 mM glucose and 11.6 mM HEPES. The pH was adjusted to 7.4 with NaOH. […] No change in the pH of the Tyrode solution could be measured after this addition. […]
Suction pipettes with resistance values between 2 and 5 MΩ were drawn from borosilicate glass (Jencons, H15/10) and heat polished. […] The results were recorded on magnetic tape or floppy disk. […] Calcium currents were measured as the difference between the maximum slow inward current and the current recorded after 400 ms.

[3] = test system: guinea-pig papillary muscle; experiment: Electrophysiological test: action potential of guinea-pig papillary muscle (microelectrode technique); details: for minimal effective concentration: Cavia porcellus; for TIME 1 (Shortest time needed to attain suppression) / TIME 2 (Shortest time needed for reversal of effect by washing out of compound): at the listed bath concentration; for DEGREE OF SUPPRESSION: suppression of action potential at the listed bath concentration
Method: Electrophysiological studies were conducted on guinea-pig papillary muscle.
Using a microelectrode technique, action potentials were measured from guinea-pig papillary muscles. Action potentials were evoked by electrical stimulation (platinum electrode, Grass S88 stimulator, 1 Hz stimulation frequency; voltage, 10% above threshold). […] The preparations were electrically driven (pacing intervals 1 s, duration 2-5 ms). Slow (Ca2+ mediated) action potentials were evoked in a depolarizing solution (22 mmol/l K and 5 mmol/I Ca^2+) at 0,35 Hz stimulation frequency in order to ensure complete removal of inactivation of slow inward current.

CCCCCCCCNC12OC3C4C5CC(C6C5C3C61)C42 (racemic) [Compound 3, 8-η-Octylamino-8,11-oxopentacyclo[5.4.0 .0^2,6.0^3,10.0^5,9]undecane]
Antihypertensive activity [1]: Antihypertensive activity has also been obtained | inhibition at 0.01 mg ([2]; Oryctolagus cuniculus, Table 5, dose 10 µg, read-out: Mean % change in perfusion pressure): 8.5% | inhibition at 0.0316 mg ([2]; Oryctolagus cuniculus, Table 5, dose 31.6 µg, read-out: Mean % change in perfusion pressure): 11.5% | inhibition at 0.1 mg ([2]; Oryctolagus cuniculus, Table 5, dose 100 µg, read-out: Mean % change in perfusion pressure): 16.5% | inhibition at 0.316 mg ([2]; Oryctolagus cuniculus, Table 5, dose 316 µg, read-out: Mean % change in perfusion pressure): 26% | inhibition at 1 mg ([2]; Oryctolagus cuniculus, Table 5, dose 1000 µg, read-out: Mean % change in perfusion pressure): 41% | inhibition at 0.01 mg ([2]; Oryctolagus cuniculus, Table 6, dose 10 μg, read-out: Corrected mean % change in perfusion pressurre): 5.5% | inhibition at 0.0316 mg ([2]; Oryctolagus cuniculus, Table 6, dose 31.6 μg, read-out: Corrected mean % change in perfusion pressurre): 5.5% | inhibition at 0.1 mg ([2]; Oryctolagus cuniculus, Table 6, dose 100 μg, read-out: Corrected mean % change in perfusion pressurre): 11.5% | inhibition at 0.316 mg ([2]; Oryctolagus cuniculus, Table 6, dose 316 μg, read-out: Corrected mean % change in perfusion pressurre): 20.5% | inhibition at 1 mg ([2]; Oryctolagus cuniculus, Table 6, dose 1000 μg, read-out: Corrected mean % change in perfusion pressurre): 34.5% | inhibition at 0.0316 mg ([2]; Oryctolagus cuniculus, Table 7, dose 31.6 μg, read-out: Mean % change in perfusion pressure): 9.4% | inhibition at 0.1 mg ([2]; Oryctolagus cuniculus, Table 7, dose 100 μg, read-out: Mean % change in perfusion pressure): 17.3% | inhibition at 0.316 mg ([2]; Oryctolagus cuniculus, Table 7, dose 316 μg, read-out: Mean % change in perfusion pressure): 24.7% | inhibition at 1 mg ([2]; Oryctolagus cuniculus, Table 7, dose 1000 μg, read-out: Mean % change in perfusion pressure): 28.9% | inhibition at 3.16 mg ([2]; Oryctolagus cuniculus, Table 7, dose 3160 μg, read-out: Mean % change in perfusion pressure): 27.6% | Mean time taken to return to pre-dose volume ([2]; Table 5, dose 31.6 µg): 1.75 min | Mean time taken to return to pre-dose volume ([2]; Table 5, dose 100 µg): 4.25 min | Mean time taken to return to pre-dose volume ([2]; Table 5, dose 316 µg): 5.5 min | Mean time taken to return to pre-dose volume ([2]; Table 5, dose 1000 µg): 8.75 min | Mean time to return to predose value ([2]; Table 6, dose 100 μg): 4.25 min | Mean time to return to predose value ([2]; Table 6, dose 316 μg): 7.0 min | Mean time to return to predose value ([2]; Table 6, dose 1000 μg): 10.5 min | Mean time taken to return to predose volume ([2]; Table 7, dose 31.6 μg): 6.3 min | Mean time taken to return to predose volume ([2]; Table 7, dose 100 μg): 6.3 min | Mean time taken to return to predose volume ([2]; Table 7, dose 316 μg): 8.5 min | Mean time taken to return to predose volume ([2]; Table 7, dose 1000 μg): 19.3 min | Mean time taken to return to predose volume ([2]; Table 7, dose 3160 μg): 15.0 min | block of the calcium current (cardiac myocytes): pronounced frequency dependent block | minimal effective concentration ([3]; read-out: BATH CONCENTRATION (Lowest concentration of the compound to induce suppression of action potential), Table 3, guinea-pig papillary muscle): 62.5 µM | minimal effective concentration ([3]; read-out: BATH CONCENTRATION (Lowest concentration of the compound to induce suppression of action potential), Table 4, racemates and optical isomers): 62.5 µM | TIME 1 (Shortest time needed to attain suppression) ([3]; Table 3): 6 min | TIME 2 (Shortest time needed for reversal of effect by washing out of compound) ([3]; Table 3): 6 min | DEGREE OF SUPPRESSION ([3]; Table 3): complete | TIME 1 (Shortest time needed to attain suppression) ([3]; Table 4): 6 min | TIME 2 (Shortest time needed for reversal of effect by washing out of compound) ([3]; Table 4): 6 min | DEGREE OF SUPPRESSION ([3]; Table 4): complete
